Where a name gives a salt, the structure may show the parent alone. Read-outs that look alike come from different tables or passages of the source.
Key:
[1] = test system: maltose/trehalose conversion enzyme derived from Pseudomonas putida H262; type: biochemical
Description: (§1) Maltose/trehalose conversion enzymes are assayed as follows: 1 ml of 20 w/v % maltose as substrate in 10 mM phosphate buffer (pH7.0) is added with 1 ml enzyme liquid, allowed to react at 25° C., 35° C. or 60° C. for 60 minutes and heated at 100° C. for 10 minutes to suspend the reaction. The reaction liquid is accurately diluted by 11-times in 50 mM phosphate buffer (pH7.5) and 0.4 ml of the diluted liquid is added with 0.1 ml of 1 unit/ml trehalase solution, incubated at 45° C. for 120 minutes and determined for glucose level by the glucose oxidase method. […] The amount of the trehalose formed by maltose/trehalose conversion enzyme is estimated with the increased amount of glucose as determined by the above measurement and one unit of the enzyme is defined as the amount of enzyme that forms one micromole of trehalose for one minute.
(§2) Effects of temperature and pH on the activity of the enzyme were investigated in accordance with the assay method. […] The thermal stability of the enzyme was determined by incubating the enzyme in 50 mM phosphate buffer (pH7.0) at different temperatures for 60 minutes, cooling with water and assaying the residual activities. While the pH stability was determined by incubating at 35° C. for 60 minutes in 50 mM phosphate buffer with different pH levels, adjusting to pH7.0 and assaying the residual enzyme activities.

[2] = target: T1, maltose/trehalose conversion enzyme derived from Pimelobacter species R48 (Pimelobacter sp., UniProt P72235); assay: Inhibition of enzymatic activity; type: biochemical
T1 construct: The culture obtained in Experiment 1 was centrifugally separated to collect the cells; made in house; host or cells: native producer Pimelobacter species R48 (FERM BP-4315), purified from disrupted cells
T1 sequence (P72235 1-573): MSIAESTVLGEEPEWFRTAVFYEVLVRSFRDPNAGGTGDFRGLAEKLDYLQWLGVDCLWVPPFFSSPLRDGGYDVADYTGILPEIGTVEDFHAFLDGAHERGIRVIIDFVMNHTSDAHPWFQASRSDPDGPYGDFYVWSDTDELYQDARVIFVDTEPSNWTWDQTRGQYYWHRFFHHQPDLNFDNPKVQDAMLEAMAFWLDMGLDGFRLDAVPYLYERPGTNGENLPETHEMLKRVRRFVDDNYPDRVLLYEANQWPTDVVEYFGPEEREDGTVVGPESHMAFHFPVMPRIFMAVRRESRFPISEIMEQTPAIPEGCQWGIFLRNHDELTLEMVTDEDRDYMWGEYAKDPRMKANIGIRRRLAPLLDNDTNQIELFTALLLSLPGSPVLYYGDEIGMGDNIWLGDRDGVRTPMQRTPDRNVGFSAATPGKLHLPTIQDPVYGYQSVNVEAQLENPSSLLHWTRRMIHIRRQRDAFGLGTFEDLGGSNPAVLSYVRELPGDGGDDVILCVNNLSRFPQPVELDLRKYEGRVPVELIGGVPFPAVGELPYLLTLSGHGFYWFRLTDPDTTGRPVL
Description: as §1
as §2, with “20°” for “35°”

[3] = target: T2, maltose/trehalose conversion enzyme derived from Thermus aquaticus (ATCC33923) (Thermus thermophilus, UniProt O06458); assay: Inhibition of enzymatic activity; type: biochemical
T2 construct: The culture obtained in Experiment 15 was centrifugally separated to collect the cells; made in house; host or cells: native producer Thermus aquaticus (ATCC33923), purified from disrupted cells
T2 sequence (O06458 1-963): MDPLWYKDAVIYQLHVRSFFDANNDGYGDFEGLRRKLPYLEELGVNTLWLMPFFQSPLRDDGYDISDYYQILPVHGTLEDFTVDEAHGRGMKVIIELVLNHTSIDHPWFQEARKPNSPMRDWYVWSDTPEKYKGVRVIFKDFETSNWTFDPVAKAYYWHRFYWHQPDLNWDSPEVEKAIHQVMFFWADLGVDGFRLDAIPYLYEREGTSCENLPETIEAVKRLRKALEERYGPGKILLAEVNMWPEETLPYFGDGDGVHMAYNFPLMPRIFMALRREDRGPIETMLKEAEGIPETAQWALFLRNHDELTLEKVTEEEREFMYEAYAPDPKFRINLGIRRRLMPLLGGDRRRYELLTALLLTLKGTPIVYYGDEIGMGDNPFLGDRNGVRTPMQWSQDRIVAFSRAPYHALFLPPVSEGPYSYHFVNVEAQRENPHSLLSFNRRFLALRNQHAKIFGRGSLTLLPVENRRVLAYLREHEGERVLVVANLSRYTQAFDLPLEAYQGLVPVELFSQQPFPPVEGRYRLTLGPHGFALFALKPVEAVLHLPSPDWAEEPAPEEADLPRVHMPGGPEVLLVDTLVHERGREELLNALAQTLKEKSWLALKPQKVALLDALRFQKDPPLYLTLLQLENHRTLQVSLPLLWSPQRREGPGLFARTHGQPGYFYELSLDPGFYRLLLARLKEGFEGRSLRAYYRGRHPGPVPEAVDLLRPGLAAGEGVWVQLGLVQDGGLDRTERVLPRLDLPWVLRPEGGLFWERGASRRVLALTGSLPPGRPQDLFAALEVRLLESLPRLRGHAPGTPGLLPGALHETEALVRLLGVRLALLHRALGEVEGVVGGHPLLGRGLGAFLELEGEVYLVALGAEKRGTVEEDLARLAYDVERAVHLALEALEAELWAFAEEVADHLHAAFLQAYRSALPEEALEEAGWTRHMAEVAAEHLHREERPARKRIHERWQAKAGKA
Description: as §1
as §2, with “60°” for “35°”

[4] = test system: partially-purified enzymes derived from conventional microorganisms of the genus Thermus; assay: Action on a variety of saccharides, partially-purified enzymes; type: biochemical; conditions: method of Experiment 18
Description: Among conventional microorganisms, the specified microorganisms which had been confirmed for production of the maltose/trehalose conversion enzyme according to the present invention were cultivated in flasks for 48 hours in accordance with the method in Experiment 15. Respective cultures were checked for enzymatic activity and then subjected to cell disrupter in accordance with the method in Experiment 16 and the supernatants were dialyzed to obtain partially-purified enzymes which were then investigated for properties in accordance with the method in Experiment 17.

[5] = target: T3, purified maltose/trehalose conversion enzyme from Pimelobacter species R48 (Pimelobacter sp., UniProt P72235); assay: Action on a variety of saccharides (substrate feasibility, TLC); type: biochemical; conditions: 20° C., pH7.0, 24 hours
T3 construct: The culture obtained in Experiment 1 was centrifugally separated to collect the cells; made in house; host or cells: native producer Pimelobacter species R48 (FERM BP-4315), purified from disrupted cells
T3 sequence (P72235 1-573): T1 sequence (P72235 1-573)
Description: (§3) A variety of saccharides were tested for feasibility as substrate.
(§4) Each solution was added with 2 units/g substrate solid of a purified maltose/trehalose conversion enzyme obtained by the method in Experiment 2, adjusted to give respective substrate concentrations of 5 w/v % and reacted at 20° C. and pH7.0 for 24 hours. Before and after the reaction the solutions were subjected to thin-layer chromatography (TLC) on "[…] 60", an aluminum plate, width and length of 20 cm respectively, commercialized by Merck & Co., Inc., New Jersey, USA, to check the enzymatic action on respective saccharides. TLC was developed at ambient temperature with a mixture solvent of 1-butanol, pyridine and water (6:4:1 by volume). Coloration was carried out by first spraying 20% sulfuric acid/methanol solution, then heating at 110° C. for 10 minutes.

[6] = test system: purified enzyme from Pseudomonas putida H262; assay: as above; type: biochemical; conditions: method of Experiment 4, reaction temperature 35° C.
Description: as §3, §4
A variety of saccharides were tested for feasibility as substrate for the purified enzyme from Pseudomonas putida H262 obtained in Experiment 10 in accordance with the method in Experiment 4 except that the reaction temperature was set to 35° C. As the result, like the enzyme from Pimelobacter species R48, the enzyme from Pseudomonas putida H262 acted on only maltose and trehalose to convert maltose to trehalose as well as to convert trehalose to maltose.

mice = assay: Acute toxicity test; type: in vivo; conditions: orally administered in mice, possible highest dose
Description: An acute toxicity test was conducted on a high-purity trehalose prepared in Example A-6, where it was orally administered in mice. As the result, trehalose was a low toxic substance causing no death even in the possible highest dose. Thus its LD50 would be briefly 50 g/kg or higher.

[7] = Test for assimilation in vivo (blood sugar and insulin levels); conditions: healthy three men
Description: In accordance with the method reported by Atsuji et al., Rinsho Eiyo (Clinical Nutrition), Vol.41, No.2, pp.200-208 (1972), 30g of the high-purity trehalose, purity of 99.8%, prepared in Experiment 8 was prepared into 20 w/v % aqueous solution and orally administered to healthy three men, age of 26, 27 and 30 years, after which their bloods were periodically sampled and measured for blood sugar and insulin levels. Glucose was used as control. […] Thus the trehalose and saccharide containing the same are suitable as saccharide source for energy supplement.

[8] = Physicochemical properties of trehalose preparations: solubility; conditions: in 25° C. water
Description: A high-purity trehalose prepared by the method in Experiment 8 was tested for physicochemical properties. […] These physical values were in good agreement with those of a simultaneously tested commercially-available crystalline trehalose hydrate, a product of Wako Pure Chemical Industries, Ltd., Osaka, Japan.

[9] = 30 g as 20 w/v % aqueous solution, oral

| Structure (SMILES) | Inhibition of activity ([1]; 1 mM) | Inhibition of activity ([2]; 1 mM) | Inhibition of activity ([3]; 1 mM) | action of the enzymes on saccharides (in words) [4] | action of the enzyme on saccharides (in words) [5] | action of the enzyme on saccharides (in words) [6] | other results |
| --- | --- | --- | --- | --- | --- | --- | --- |
| [Cu+2] [Cu^2+] | Inhibited | Inhibited | Inhibited |  |  |  | Inhibition of activity ([3]; 1 mM, listed as C^2+): inhibited |
| [Hg+2] [Hg^2+] | Inhibited | Inhibited | Inhibited |  |  |  |  |
| OC[C@H]1O[C@H](O[C@H]2[C@H](O)[C@@H](O)[C@H](O)O[C@@H]2CO)[C@H](O)[C@@H](O)[C@@H]1O [Maltose] |  |  |  | acted on | acted on | acted on |  |
| NC(CO)(CO)CO [Tris-HCl buffer, Tris-HCl] |  |  |  |  |  |  | Inhibition of activity [1]: Inhibited; Inhibition of activity [2]: Inhibited; Inhibition of activity [3]: Inhibited |
| OC[C@H]1O[C@H](O[C@H]2O[C@H](CO)[C@@H](O)[C@H](O)[C@H]2O)[C@H](O)[C@@H](O)[C@@H]1O [trehalose, alpha,alpha-trehalose] |  |  |  | acted on | acted on | acted on | death in acute toxicity test (mice): no death; time at which blood sugar level reached maximum after administration [7, 9]: 0.5 to 1 h; time at which insulin level reached maximum after administration [7, 9]: 0.5 to 1 h; digestion, absorption and utilization (in words) ([7]; 30 g oral, glucose as control): readily digested and absorbed and then metabolized and utilized as energy source; solubility as anhydrous substance [8]: 77.0 g |

Reference: patent US5935636A, “Trehalose and its production and use” (Kabushiki Kaisha Hayashibara Seibutsu Kagaku Kenkyujo, priority 1994, dated 1999)
